Laboratory results taken from ChEMBL document CHEMBL1201862, “PubChem BioAssay data set” (2004).
Active and inactive are the calls of the source.

What was measured:
[1] = biological target: Mothers against decapentaplegic homolog 3 (Homo sapiens, UniProt P84022); assay: inhibitors of SMAD-driven TGF-beta signaling – dose response (AID 715); format: functional
H9c2 = assay: cells; format: functional, cell-based; conditions: Rattus norvegicus, H9c2, Myocardium;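 note: confirmatory concentration-response retest of ultra-high-throughput screening hits for modulation of myocardial damage; cell death induced by hydrogen peroxide oxidative stress; compound pretreatment for 60 min then peroxide exposure for 2 h; potency is for protecting the cells against peroxide damage rather than for killing them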
[2] = biological target: Peroxisome proliferator-activated receptor gamma/Nuclear receptor coactivator 1 (Homo sapiens, UniProt P37231); assay: (§1) TR-FRET dose response biochemical High Throughput Screening assay for agonists of the steroid receptor coactivator 1 (SRC-1) recruitment by the peroxisome proliferator-activated receptor gamma (PPAR gamma): non-selective agonists. [Related pubchem assays (depositor defined):AID1300, AID1808, AID504735, AID631]; format: protein assay
Peroxisome proliferator-activated receptor gamma/Nuclear receptor coactivator 1, sequence (P37231 whole entry): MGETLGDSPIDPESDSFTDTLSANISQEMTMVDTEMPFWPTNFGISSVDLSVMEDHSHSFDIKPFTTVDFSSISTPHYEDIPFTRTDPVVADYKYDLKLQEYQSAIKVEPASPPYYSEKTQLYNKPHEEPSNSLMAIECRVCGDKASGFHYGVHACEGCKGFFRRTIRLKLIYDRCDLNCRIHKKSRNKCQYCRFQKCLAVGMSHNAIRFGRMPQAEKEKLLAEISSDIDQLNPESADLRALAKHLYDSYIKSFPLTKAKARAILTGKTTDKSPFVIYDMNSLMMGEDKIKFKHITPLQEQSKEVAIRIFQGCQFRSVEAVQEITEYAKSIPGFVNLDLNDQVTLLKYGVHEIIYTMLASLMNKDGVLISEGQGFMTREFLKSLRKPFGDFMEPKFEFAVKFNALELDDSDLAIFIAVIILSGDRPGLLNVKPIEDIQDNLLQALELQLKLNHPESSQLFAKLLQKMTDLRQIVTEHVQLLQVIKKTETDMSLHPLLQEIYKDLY
Peroxisome proliferator-activated receptor gamma/Nuclear receptor coactivator 1, sequence (Q15788 whole entry, further chain): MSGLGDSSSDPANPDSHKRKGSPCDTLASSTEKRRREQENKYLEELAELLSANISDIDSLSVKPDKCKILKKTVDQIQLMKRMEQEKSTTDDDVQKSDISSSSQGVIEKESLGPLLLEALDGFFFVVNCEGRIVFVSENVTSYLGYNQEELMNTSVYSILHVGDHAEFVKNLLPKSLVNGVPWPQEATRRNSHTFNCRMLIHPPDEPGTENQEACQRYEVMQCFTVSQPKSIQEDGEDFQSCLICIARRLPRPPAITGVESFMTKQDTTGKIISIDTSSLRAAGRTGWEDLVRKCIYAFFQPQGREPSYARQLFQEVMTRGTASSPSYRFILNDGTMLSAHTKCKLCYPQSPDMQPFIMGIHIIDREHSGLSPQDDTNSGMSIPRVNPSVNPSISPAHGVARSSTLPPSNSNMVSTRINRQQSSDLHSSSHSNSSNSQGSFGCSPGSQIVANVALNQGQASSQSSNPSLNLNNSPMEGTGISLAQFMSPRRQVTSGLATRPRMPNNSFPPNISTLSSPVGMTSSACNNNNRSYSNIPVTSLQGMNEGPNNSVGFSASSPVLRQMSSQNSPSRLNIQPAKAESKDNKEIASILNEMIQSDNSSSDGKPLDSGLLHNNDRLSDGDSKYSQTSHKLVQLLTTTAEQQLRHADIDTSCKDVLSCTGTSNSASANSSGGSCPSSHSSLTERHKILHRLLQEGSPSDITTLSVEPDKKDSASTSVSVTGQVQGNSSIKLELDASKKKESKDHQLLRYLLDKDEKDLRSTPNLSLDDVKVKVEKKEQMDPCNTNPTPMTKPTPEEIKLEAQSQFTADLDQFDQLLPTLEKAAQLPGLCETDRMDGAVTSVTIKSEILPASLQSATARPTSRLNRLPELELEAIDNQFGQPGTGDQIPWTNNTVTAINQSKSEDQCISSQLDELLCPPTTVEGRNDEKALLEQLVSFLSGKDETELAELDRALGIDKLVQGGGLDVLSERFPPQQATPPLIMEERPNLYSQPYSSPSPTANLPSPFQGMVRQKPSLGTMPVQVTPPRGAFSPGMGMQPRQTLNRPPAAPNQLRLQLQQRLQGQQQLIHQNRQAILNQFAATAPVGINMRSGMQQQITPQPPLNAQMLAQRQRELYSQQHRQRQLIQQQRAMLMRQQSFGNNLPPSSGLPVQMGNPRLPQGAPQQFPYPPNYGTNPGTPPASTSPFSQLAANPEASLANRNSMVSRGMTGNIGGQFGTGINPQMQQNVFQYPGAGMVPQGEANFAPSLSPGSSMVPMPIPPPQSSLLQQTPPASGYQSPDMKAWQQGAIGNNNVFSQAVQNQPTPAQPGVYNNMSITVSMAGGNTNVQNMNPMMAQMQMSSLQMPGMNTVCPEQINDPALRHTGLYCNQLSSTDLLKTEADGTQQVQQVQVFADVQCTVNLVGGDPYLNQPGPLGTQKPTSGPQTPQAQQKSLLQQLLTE

[3] = biological target: Peroxisome proliferator-activated receptor gamma/Nuclear receptor coactivator 3 (Homo sapiens, UniProt P37231); assay: as §1, with “3 (SRC-3)” for “1 (SRC-1)”, “assays: 1301 (Confirmation screen.), 1048 (Primary screen.)]” for “assays (depositor defined):AID1300, AID1808, AID504735, AID631]”; format: functional
Estrogen receptor beta = Estrogen receptor beta (Homo sapiens, UniProt Q92731); assay: blockers of SRC-3 recruitment to ERβ – biochemical, ELISA, streptavidin-HRP readout, orthogonal assay, confirmation (AID 1060)
[4] = biological target: Peroxisome proliferator-activated receptor gamma/Nuclear receptor coactivator 2 (Homo sapiens, UniProt P37231); assay: TR-FRET dose response biochemical High Throughput Screening assay for agonists of the steroid receptor coactivator 2 (SRC-2) recruitment by the peroxisome proliferator-activated receptor gamma (PPAR gamma): non-selective agonists. [Related pubchem assays: 1297, 1032 ]; format: functional
Peroxisome proliferator-activated receptor gamma/Nuclear receptor coactivator 2, sequence (P37231 whole entry): as the sequence (P37231 whole entry) above
Peroxisome proliferator-activated receptor gamma/Nuclear receptor coactivator 2, sequence (Q15596 whole entry, further chain): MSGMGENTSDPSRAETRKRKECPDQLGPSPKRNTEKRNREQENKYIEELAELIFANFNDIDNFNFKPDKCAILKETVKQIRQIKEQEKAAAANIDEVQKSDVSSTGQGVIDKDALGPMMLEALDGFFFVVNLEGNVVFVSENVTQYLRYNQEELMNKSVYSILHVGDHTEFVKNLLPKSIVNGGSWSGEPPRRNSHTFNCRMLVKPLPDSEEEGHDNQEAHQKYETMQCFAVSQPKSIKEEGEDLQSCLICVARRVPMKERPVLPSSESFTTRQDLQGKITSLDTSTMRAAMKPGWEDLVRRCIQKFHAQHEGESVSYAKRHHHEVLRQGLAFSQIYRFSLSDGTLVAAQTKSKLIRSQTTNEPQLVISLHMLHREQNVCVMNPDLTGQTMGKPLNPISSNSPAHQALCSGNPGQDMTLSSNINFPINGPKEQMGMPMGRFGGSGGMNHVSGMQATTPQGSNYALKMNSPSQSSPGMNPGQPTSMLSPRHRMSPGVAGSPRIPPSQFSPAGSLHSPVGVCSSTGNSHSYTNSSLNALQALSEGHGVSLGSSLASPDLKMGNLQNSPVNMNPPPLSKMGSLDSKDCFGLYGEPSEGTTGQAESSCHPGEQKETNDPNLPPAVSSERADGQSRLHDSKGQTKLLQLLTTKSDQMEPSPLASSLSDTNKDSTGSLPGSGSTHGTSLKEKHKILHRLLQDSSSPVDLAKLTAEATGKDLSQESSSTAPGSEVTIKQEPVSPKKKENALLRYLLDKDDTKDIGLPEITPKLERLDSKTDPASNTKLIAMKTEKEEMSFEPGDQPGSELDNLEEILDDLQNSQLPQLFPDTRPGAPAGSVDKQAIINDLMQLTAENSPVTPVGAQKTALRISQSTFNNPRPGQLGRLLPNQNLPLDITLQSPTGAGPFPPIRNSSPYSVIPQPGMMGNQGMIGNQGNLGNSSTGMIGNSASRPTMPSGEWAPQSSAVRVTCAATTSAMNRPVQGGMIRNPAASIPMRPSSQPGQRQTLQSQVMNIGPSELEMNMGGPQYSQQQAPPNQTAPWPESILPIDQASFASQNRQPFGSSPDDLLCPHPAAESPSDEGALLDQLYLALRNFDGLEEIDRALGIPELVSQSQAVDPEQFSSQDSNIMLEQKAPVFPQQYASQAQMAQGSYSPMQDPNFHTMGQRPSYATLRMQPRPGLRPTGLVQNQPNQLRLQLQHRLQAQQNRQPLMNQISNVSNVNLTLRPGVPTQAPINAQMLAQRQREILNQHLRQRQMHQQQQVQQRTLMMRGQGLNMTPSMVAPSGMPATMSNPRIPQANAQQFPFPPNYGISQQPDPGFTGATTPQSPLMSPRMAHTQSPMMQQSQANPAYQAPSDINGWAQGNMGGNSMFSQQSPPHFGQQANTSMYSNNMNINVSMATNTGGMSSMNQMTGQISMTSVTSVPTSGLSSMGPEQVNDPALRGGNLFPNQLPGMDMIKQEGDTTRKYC

[5] = biological target: T1, Heat shock factor protein 1 (Mus musculus, UniProt P38532); assay: enhancement of HSF1-driven luciferase signal – cell-based, NIH3T3, luminescence, dose retest, confirmation (AID 435004); format: functional;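 note: stress induced by proteasome inhibitor MG132 added 30 min after compound; luciferase reporter driven by HSF1 response element in NIH3T3 cells; actives raise luminescence as potentiators of the MG132 stress response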
T1 sequence (P38532 whole entry): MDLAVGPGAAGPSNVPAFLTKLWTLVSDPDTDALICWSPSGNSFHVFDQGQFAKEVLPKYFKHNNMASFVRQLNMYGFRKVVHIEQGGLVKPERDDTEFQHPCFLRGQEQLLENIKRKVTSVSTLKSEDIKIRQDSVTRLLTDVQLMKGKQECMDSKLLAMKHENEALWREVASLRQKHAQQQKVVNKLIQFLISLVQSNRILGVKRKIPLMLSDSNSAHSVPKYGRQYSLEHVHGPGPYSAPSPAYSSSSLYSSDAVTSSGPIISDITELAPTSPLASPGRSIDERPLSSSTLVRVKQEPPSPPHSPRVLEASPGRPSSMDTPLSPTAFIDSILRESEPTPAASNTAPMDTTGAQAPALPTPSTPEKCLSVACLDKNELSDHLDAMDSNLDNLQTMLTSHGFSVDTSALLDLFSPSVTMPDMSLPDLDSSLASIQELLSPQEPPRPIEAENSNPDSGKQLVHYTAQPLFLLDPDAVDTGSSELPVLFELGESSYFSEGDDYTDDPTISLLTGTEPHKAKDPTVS

[6] = mitochondrial function rescue without frataxin homolog – Friedreich's ataxia, plus single-dose screen, dose response (AID 1465); format: functional;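 note: yeast depleted of Yfh1p frataxin homolog grown on glycerol needing respiration; WST-1 tetrazolium dye reduction as measure of cellular dehydrogenase metabolic activity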
[7] = biological target: Induced myeloid leukemia cell differentiation protein Mcl-1 (Homo sapiens, UniProt Q07820); format: functional
Induced myeloid leukemia cell differentiation protein Mcl-1, sequence (Q07820 whole entry): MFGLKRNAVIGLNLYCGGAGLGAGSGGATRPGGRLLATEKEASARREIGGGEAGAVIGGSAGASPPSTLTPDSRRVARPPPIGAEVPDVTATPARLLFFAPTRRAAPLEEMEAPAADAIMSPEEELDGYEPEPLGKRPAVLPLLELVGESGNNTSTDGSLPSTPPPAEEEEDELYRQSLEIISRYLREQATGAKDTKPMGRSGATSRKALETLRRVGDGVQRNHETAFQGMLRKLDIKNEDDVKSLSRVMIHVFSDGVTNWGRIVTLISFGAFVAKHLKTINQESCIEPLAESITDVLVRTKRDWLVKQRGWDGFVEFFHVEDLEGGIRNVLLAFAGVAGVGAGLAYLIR

[8] = biological target: T2, Rac GTPase-activating protein 1 (Homo sapiens, UniProt Q9H0H5); assay: blockers of MgcRacGAP-driven Rac1 GTP hydrolysis – biochemical, ADP Hunter fluorescence, primary and confirmatory, confirmation (AID 624330); format: functional
T2 sequence (Q9H0H5 whole entry): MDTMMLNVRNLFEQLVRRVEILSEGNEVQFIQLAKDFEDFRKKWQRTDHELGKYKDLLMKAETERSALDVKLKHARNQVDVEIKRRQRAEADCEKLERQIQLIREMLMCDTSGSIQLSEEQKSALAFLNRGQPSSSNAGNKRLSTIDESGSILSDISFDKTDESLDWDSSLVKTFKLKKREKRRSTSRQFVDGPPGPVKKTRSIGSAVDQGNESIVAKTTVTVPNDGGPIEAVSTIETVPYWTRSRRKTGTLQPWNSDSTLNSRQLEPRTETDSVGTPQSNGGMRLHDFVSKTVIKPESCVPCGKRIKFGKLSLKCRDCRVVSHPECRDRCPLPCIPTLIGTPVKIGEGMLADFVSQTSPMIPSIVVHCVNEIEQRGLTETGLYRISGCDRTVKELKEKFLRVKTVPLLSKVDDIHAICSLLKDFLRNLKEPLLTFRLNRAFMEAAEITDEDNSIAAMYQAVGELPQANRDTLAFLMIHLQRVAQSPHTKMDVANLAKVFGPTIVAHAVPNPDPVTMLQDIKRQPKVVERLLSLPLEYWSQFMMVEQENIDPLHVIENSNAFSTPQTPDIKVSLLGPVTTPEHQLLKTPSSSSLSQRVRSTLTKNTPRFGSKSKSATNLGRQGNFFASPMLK

Mothers against decapentaplegic homolog 3, sequence (P84022 whole entry): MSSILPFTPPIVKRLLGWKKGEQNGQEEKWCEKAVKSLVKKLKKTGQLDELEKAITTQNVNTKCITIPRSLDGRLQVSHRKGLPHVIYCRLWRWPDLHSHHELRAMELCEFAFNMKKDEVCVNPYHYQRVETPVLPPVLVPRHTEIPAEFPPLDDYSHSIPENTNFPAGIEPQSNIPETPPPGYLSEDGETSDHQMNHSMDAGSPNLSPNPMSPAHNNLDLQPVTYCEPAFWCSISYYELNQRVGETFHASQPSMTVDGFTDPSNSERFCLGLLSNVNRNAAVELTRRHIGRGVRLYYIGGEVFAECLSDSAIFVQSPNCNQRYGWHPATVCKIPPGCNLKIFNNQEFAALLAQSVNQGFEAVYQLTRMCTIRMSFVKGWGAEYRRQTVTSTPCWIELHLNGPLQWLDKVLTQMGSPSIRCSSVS

Cc1ccc(N2C(=O)CS/C2=C(\C(Cl)=C(Cl)Cl)[N+](=O)[O-])cc1
IC50 [1]: 27.7 µM (active)
IC50 (H9c2): > 79 µM (inactive)

COC(=O)c1ccc(CSc2ncnc3c2oc2ccccc23)o1
EC50 [2]: 29.1 µM (inactive)
EC50 [3]: > 79.4 µM (not active)
IC50 [1]: 14.7 µM (active)
IC50 (Estrogen receptor beta): 0.0578 µM (not active)
EC50 [4]: > 8.82 µM (not active)
EC50 [5]: > 260 µM (inactive)

CC1=NN(C(N)=S)C(=O)C1N=Nc1ccc(O)cc1 (stereo unspecified)
EC50 [6]: > 100 µM (active)
IC50 [7]: 9.66 µM (active)
IC50 [8]: 16.6 µM (active)
